In patent US7741283B2, “Compositions and methods for inhibiting cell proliferation” (St. Louis University, priority 2003, dated 2010):
Entries after “also recorded” stand apart in the source; their conditions may differ.

Tests used:
IRS-2 [1] = experiment: 32P metabolic labeling and immunoprecipitation of IRS-2, MB102-16 cells; type: cell-based, mink; settings: MB102-16 cells (αIβI); IGFBP-3 1 μg/ml, GM-CSF 1 nM
IRS-2 [2] = experiment: 32P metabolic labeling and immunoprecipitation of IRS-2, MB102-9 cells; type: cell-based, mink; settings: MB102-9 cells (αIβII); IGFBP-3 1 μg/ml, GM-CSF 1 nM
[3] = tested on: TβR-V purified from bovine liver plasma membranes; experiment: 125I-IGFBP-3 / 125I-TGF-β1 affinity labeling of purified TβR-V; type: binding; settings: DSS, β1^25(41-65) 20 μM, RAP 10-40 μg/ml, α2M* 100 nM, lactoferrin 100 nM
TβR-V = experiment: 125I-ligand affinity labeling (binding and cross-linking) in Mv1Lu cells; design: species or system mink
Protocol: FIG. 2 depicts the effects of RAP on ^125I-IGFBP-3 (A) and ^125I-TGF-β1 binding (B) to TβR-V and on IGFBP-3-induced inhibition of DNA synthesis (C) in Mv1Lu cells. (A,B) Cells were incubated with ^125I-IGFBP-3 (10 nM) or ^125I-TGF-β1 (0.1 nM) in the presence of various concentrations of RAP as indicated. After 2.5 hr at 0° C., the ^125I-IGFBP-3-TβR-V complex or ^125I-TGF-β1-TGF-β receptor complexes were cross-linked by DSS and analyzed by autoradiography. The relative intensity of the ^125I-IGFBP-3-TβR-V complex or ^125I-TGF-β1-TGF-β receptor complex on the dried gel was quantified by a PhosphoImager. The arrow indicates the location of the ^125I-TGF-β-TβR-V complex or the ^125I-IGFBP-3-TβR-V complex. The bracket indicates the locations of the ^125I-TGF-β1-TβR-III and -TβR-II complexes. The ^125I-TGF-β1-TβR-I complex co-migrated with the dye front. The ^125I-TGF-β1-TβR-II complex can be seen upon longer time exposure of the autoradiogram. (C) Cells were incubated with various concentrations, as indicated, of IGFBP-3 and GST-RAP (100 μg/ml). […] After further incubation for 10 hr, the DNA synthesis of cells was determined by measuring [methyl-^3H] thymidine incorporation into cellular DNA. […]
Mv1Lu cells are a well-established model system for investigating TGF-β activities and receptor functions. […] After further incubation for 10 hr, DNA synthesis of the cells was determined.

DR26 cells = experiment: [methyl-3H] thymidine incorporation, DR26 cells; type: cell-based, mink; settings: DR26 cells, in the presence of insulin
Protocol: (A,B) DR26 cells were incubated with various concentrations as indicated of IGFBP-3 in the absence (A) and presence (B) of various concentrations of insulin. After 18 hr at 37° C., the [methyl-^3H] thymidine incorporation into cellular DNA was determined. (C,D,E) Mv1Lu, DR26 and R1B cells metabolically labeled with ^[…]-orthophosphate for 2 hr were treated with IGFBP-3 (1:g/ml) or insulin (10 nM) (C). DR26 cells metabolically labeled with ^[…]-orthophosphate for 2 hr were treated with or without IGFBP-3 (1 μg/ml) in the presence of various concentrations of TGF-β1 as indicated (D). Mv1Lu cells expressing αIβI and αIβII chimeric receptors (MB102-16 and MB102-9 cells, respectively) metabolically labeled with ^[…]-orthophosphate for 2 hr were treated with or without IGFBP-3 (1 μg/ml) or GM-CSF (1 nM) (E). After 2 hr at 37° C. (in the absence of […]-orthophosphate in the medium), the ^[…]-labeled IRS-2 was immunoprecipitated and analyzed by 7.5% SDS-PAGE and autoradiography. […]
Mv1Lu cells were plated on 24-well clustered dishes and incubated with various concentrations of TGF-β1 or IGFBP-3 in DMEM containing 0.1% fetal calf serum. After incubation at 37° C. for 18 hr, the cells were pulse-labeled with 1 μCi of [methyl-^3H]thymidine at 37° C. for 2 hr and the [methyl-^3H] thymidine incorporation into cellular DNA was determined as described previously (59). […]

IRS-2 [4] = experiment: 32P metabolic labeling and immunoprecipitation of IRS-2, Mv1Lu cells; type: cell-based, mink; settings: Mv1Lu, IGFBP-3 1 μg/ml […] then factor 10 nM (TGF-β1 20 pM) 0.5 hr
32D/IR/IRS-2 cells = experiment: [methyl-3H] thymidine incorporation, 32D/IR/IRS-2 cells; type: cell-based, murine; settings: insulin 10 nM
Mv1Lu cells = experiment: [methyl-3H] thymidine incorporation (DNA synthesis), Mv1Lu cells; type: cell-based, mink

GM-CSF: granulocyte/macrophage colony-stimulating factor
Specific dephosphorylation (mobility change) of IRS-2 (IRS-2 [1]): only induced specific dephosphorylation (electrophoretic mobility change) of IRS-2 in MB102-9 cells
Specific dephosphorylation (mobility change) of IRS-2 (IRS-2 [2]): induce moderate specific dephosphorylation

RAP: receptor-associated protein, an LRP antagonist which blocks binding of all known ligands to LRP
^125I-TGF-β1 binding to purified TβR-V ([3]; 0.1 nM 125I-TGF-β1, […] 0° C.): appeared to inhibit
^125I-IGFBP-3 binding to purified TβR-V ([3]; 10 nM 125I-IGFBP-3, […] 0° C.): appeared to inhibit
^125I-TGF-β1 binding to TβR-V and TβR-III (TβR-V; 0.1 nM 125I-TGF-β1): only partially inhibited
IC50, inhibition of ^125I-IGFBP-3 binding to TβR-V (TβR-V; 10 nM 125I-IGFBP-3): ~5 mg/L

insulin: insulin [reference compound]
Reversal of IGFBP-3 inhibition of DNA synthesis (DR26 cells): completely reversed
Blocking of IGFBP-3-induced specific dephosphorylation of IRS-2 by growth factors/cytokines (IRS-2 [4]): blocked
Effect on IGFBP-3-induced growth inhibition (32D/IR/IRS-2 cells): capable of blocking
Effect on TGF-β1-induced growth inhibition (32D/IR/IRS-2 cells): partially reversing
Blocking of IGFBP-3-induced growth inhibition (Mv1Lu cells; Mv1Lu cells): completely blocked
Effect alone on TGF-β1-induced inhibition of DNA synthesis (Mv1Lu cells; insulin 10 nM or cyclic RGD peptide 0.01 μg/ml alone): did not block; also recorded: Neither insulin (10 nM) nor the cyclic RGD peptide (0.01 μg/ml) alone affected
